The conditions of data set [1]: in vivo, cited from earlier work.
Data set [2] is described as follows: Penetration through GI tract after oral gavage (IVIS, confocal microscopy). How it is done: DTA SNPs encapsulating a near-infrared fluorescent dye, IR780, were prepared and administered to mice via oral gavage. After one hour, the GI tract was isolated, extensively washed, and imaged by IVIS®.
Data set [3] relates to MDA-MB-231 flank tumor model. Nature of the data set: Intravenous treatment of flank tumor model with PTX-loaded OA SNPs. The settings on record: over 30 days following treatment. The class given is in vivo. How it is done: Next, drug delivery via encapsulation in OA SNPs was assayed in treating the flank tumor model.
A further data set deals with MDA-MB-231 tumors. Description: Oral treatment of mice bearing MDA-MB-231 tumors. The class given is in vivo. The settings on record: twice a week. On the procedure: The therapeutic benefit of PTX-loaded DTX SNPs was evaluated for treatment of […]. Mice bearing MDA-MB-231 tumors of ˜50 mm^3 size were treated twice a week with orally injected saline (as a control), empty DTA SNPs, free PTX, or PTX-loaded DTX SNPs (denoted as PTX-SNPs). Tumor volumes were measured three times a week. Mice were euthanized when tumor volume reached ˜1000 mm^3, at which point the tumors were excised and fixed in formalin for immunohistochemistry. Serial sections were obtained and stained with TUNEL for analysis of cellular apoptosis. The growth curve was plotted using the mean of the tumor volumes for each treatment group, at each time point.

The test system of data set [4] is human breast cancer MDA-MB-231 cells. Nature of the data set: Toxicity on breast cancer cells in vitro. The class given is cell-based. On the procedure:
FIG. 7 is a line graph showing the percentage of growth (%) of human breast cancer MDA-MB-231 cells over different concentrations (μg/mL) of different samples: PTX, DTA SNPs (denoted in this graph as SNPs), PTX-encapsulated DTA SNPs (denoted as PTX-SNPs).
Human breast adenocarcinoma cell line, MDA-MB-231 cells, were purchased from American Type Culture Collection (ATCC, Rockville, Md., USA). Cells were grown in DMEM medium (Invitrogen) supplemented with 10% fetal bovine serum (FBS, Invitrogen), 100 units/mL penicillin, and 100 µg/mL streptomycin (Invitrogen) in a 37° C. incubator containing 5% CO2.

`C[C@@H]1CC[C@H]2[C@@H](C)C(=O)O[C@@H]3O[C@@]4(C)CC[C@@H]1[C@]32OO4` [Artemisinin, artemisinin]: the bioavailability entry in data set [1] is “less than 10%”.

As to `CCCN1/C(=C/C=C2\CCCC(/C=C/C3=[N+](CCC)c4ccccc4C3(C)C)=C2Cl)C(C)(C)c2ccccc21.[I-]` [IR780], in data set [2] (one hour after oral gavage, IR780, IVIS imaging), the “location in GI tract” value is listed as “located mostly in the stomach”.

For the compound `CC(=O)O[C@H]1C(=O)[C@@]2(C)[C@H]([C@H](OC(=O)c3ccccc3)[C@]3(O)C[C@H](OC(=O)[C@H](O)[C@@H](NC(=O)c4ccccc4)c4ccccc4)C(C)=C1C3(C)C)[C@]1(OC(C)=O)CO[C@@H]1C[C@@H]2O` [PTX, paclitaxel], the “tumor volume / tumor growth” value in data set [3] is listed as “grew substantially”. Moreover, in the data set on MDA-MB-231 tumors, the “reduction of tumor volumes compared to saline control” value came to 21%. Also, the oral bioavailability entry in data set [1] (po) was “less than 2%”. For the same compound, in data set [4], the “toxicity on MDA-MB-231 cells” value was “comparable toxicity”.

As for `CCN(CC)c1ccc2c(-c3ccccc3C(=O)O)c3ccc(=[N+](CC)CC)cc-3oc2c1.[Cl-]` [rhodamine B], the “fluorescence in intestinal villi” value in data set [2] (oral administration, confocal microscopy) is reported as “limited fluorescence”.

Consider GLP-1, for which the “half-life in the circulatory system” value in data set [1] is reported as less than 2 min.

Source of the values: US11478433B2, “Nanomaterials with enhanced drug delivery efficiency” (Yale University, priority 2017, dated 2022).
